Laboratory results published in US20190201419A1, “COMPOUND AND METHOD FOR THE TREATMENT AND DIAGNOSIS OF NEURODEGENERATIVE CONDITIONS” (Swansea University, priority 2013, published 2019).

Experiments:
Format in all cases: cell-based, mouse
[1] = biological target: T1, Vdr (Homo sapiens, UniProt P11473); assay: Vdr luciferase reporter assay in SN4741 neural cells; conditions: 10 μM
T1 sequence (P11473 1-427): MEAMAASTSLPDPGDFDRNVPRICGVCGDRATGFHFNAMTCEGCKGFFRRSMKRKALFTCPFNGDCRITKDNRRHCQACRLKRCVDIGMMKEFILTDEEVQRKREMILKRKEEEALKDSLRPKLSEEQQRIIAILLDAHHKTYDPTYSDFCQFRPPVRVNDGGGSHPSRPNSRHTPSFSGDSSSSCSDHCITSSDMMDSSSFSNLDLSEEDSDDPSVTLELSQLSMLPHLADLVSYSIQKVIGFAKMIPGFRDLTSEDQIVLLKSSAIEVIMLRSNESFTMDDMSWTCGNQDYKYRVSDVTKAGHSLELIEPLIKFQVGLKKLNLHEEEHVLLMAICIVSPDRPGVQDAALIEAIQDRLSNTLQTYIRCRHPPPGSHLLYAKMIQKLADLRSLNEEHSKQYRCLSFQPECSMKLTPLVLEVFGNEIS
Experimental: (§1) Luciferase Reporter Assay. The ability of oxysterols and their acidic metabolites to activate several nuclear receptors i.e. Lxrα and β, Fxr, Vdr, Nurr1 was tested in luciferase assays. Transient transfection studies were performed in the mouse neuronal cell line SN4741. This cell line was selected as the oxysterols and acidic metabolites tested were initially identified in CSF. Cells were plated in 24-well plates ([…] cells/well) 24 hr before transfection and transfected with 1 μg of plasmid DNA/well complexed with 2 μL of Lipofectarnine 2000 (Invitrogen), Cells were transfected with 400 ng of a Lxr-, Fxr-, Vdr- or Nurr1-responsive luciferase reporter construct, and 200 ng of Lxrα, Lxrβ, Fxr, Vdr or Nurr1. A reporter gene expressing the Renilla luciferase (pRL-TK, Promega) was co-transfected in all experiments as an internal control for normalization of transfection efficiency. After a 12 h incubation, the lipid/DNA mix was replaced with fresh 2.5% serum medium containing vehicle or appropriate ligand (10 μM), as specified in each experiment. […] Luciferase activities were assayed 24 h later using the Dual-Luciferase Reporter Assay System (Promega), following the manufacturer's protocol.

[2] = tested on: Nur-related factor 1 (Nurr1)/retinoid X receptor (Rxr) heterodimers; assay: DR5 element luciferase reporter assay (Nurr1/Rxr) in SN4741 neural cells; conditions: 10 μM
Description: Luciferase Reporter Assay.

[3] = biological target: T2, Fxr (Homo sapiens, UniProt Q96RI1); assay: Fxr luciferase reporter assay in SN4741 neural cells; conditions: 24 h
T2 construct: expressed in transfected cells; host or cells: SN4741 mouse neuronal cell line
T2 sequence (Q96RI1 1-486): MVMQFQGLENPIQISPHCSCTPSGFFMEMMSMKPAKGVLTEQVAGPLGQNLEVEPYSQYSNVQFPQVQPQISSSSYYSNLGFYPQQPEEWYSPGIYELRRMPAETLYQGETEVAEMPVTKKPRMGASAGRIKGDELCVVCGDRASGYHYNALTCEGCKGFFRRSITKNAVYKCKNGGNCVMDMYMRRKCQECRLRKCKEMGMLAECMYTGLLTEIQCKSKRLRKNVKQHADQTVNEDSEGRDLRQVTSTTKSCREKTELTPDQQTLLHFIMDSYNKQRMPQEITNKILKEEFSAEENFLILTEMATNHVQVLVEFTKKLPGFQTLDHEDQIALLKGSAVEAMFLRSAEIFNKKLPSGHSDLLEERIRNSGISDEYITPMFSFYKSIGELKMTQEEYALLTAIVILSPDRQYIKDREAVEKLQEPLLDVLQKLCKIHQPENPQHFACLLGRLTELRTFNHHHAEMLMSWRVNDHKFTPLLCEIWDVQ
Experimental: as §1

C[C@H](CCC(=O)O)[C@H]1CC[C@H]2[C@@H]3CC[C@@H]4C[C@H](O)CC[C@]4(C)[C@H]3CC[C@]12C [LCA, lithocholic acid]
Vdr activation, luciferase reporter [1]: activated a vitamin D receptor (Vdr) luciferase reporter

CC1=C(/C=C/C(C)=C\C=C\C(C)=C\C(=O)O)C(C)(C)CCC1 [9-cis-RA, 9-cis-retinoic acid]
DR5 (Nurr1/Rxr) luciferase reporter activation [2]: activated this reporter

C[C@H](CCC(=O)O)[C@H]1CC[C@H]2[C@@H]3CC=C4C[C@@H](O)CC[C@]4(C)[C@H]3CC[C@]12C [3βH-Δ^5-BA, 3β-hydroxychol-5-en-24-oic acid]
Fxr activation, luciferase reporter [3]: also activated Fxr, but was less potent than CDCA
